Consider five molecules from paper PMC6408838, “Bioassay-guided isolation and identification of gametocytocidal compounds from Artemisia afra (Asteraceae)” (Malaria Journal, 2019).

The subject of one series is HepG2 cells. Nature of the series: LDH leakage cytotoxicity assay. The format is cell-based. As to conditions: for cytotoxicity (toxicity): HepG2, at 20 µg/ml; for In vitro cytotoxicity range: HepG2, concentrations of 2.5, 5, 10, and 20 µg/ml. The procedure:
(§1) Cytotoxicity assays were assessed on the HepG2 cell line (20,000 cells/well) as previously described. […] was as used as cytotoxic positive control. Assay data were normalized against untreated Plasmodium parasites and HepG2 cell controls. […] Data were analysed on Microsoft Excel and sigmoidal dose-response curves were plotted using GraphPad Prism (v5). Unless otherwise stated, all data have been expressed as mean ± SEM (n ≥ 2, carried out in three technical repeats).
(In general: LDH in the medium is a marker of cell lysis.)

Series [1] deals with intra-erythrocytic asexual P. falciparum (NF54 strain) parasites. Put plainly: pLDH assay, intra-erythrocytic asexual parasites. The class given is cell-based, Plasmodium falciparum. As to conditions: 1% parasitaemia; for IC50 value, Asexual stages: 72 h, n = 2; for IC50: Plasmodium falciparum, NF54, 72 h, n = 2, read-out: IC50 value, Asexual stages (converted). The procedure:
(§2) The chloroquine-sensitive P. falciparum (NF54 strain) was cultured as described by […] et al. […] Gametocytogenesis initiation, induction and gametocyte culturing was done as described by Reader et al.. […] Both methylene blue (MB) and artemisinin (ART) was used as gametocytocidal drug controls and chloroquine for asexual drug control. Assay data were normalized against untreated Plasmodium parasites and HepG2 cell controls. […] Data were analysed on Microsoft Excel and sigmoidal dose-response curves were plotted using GraphPad Prism (v5). […] Statistical analysis was carried out on GraphPad Prism (v5) using unpaired Student-t test with a level of significance of P < 0.05.

In series [2] the test system is early-stage gametocytes (> 85% stage II–III) of P. falciparum (NF54 strain). Put plainly: pLDH assay, early-stage gametocyte viability. As to conditions: n = 3; for IC50 value, Early stage gametocytes: 1–2% gametocytaemia; for IC50: Plasmodium falciparum, NF54, 1–2% gametocytaemia. The class given is cell-based, Plasmodium falciparum. The method, then: as §2
The subject of series [3] is late-stage gametocytes of Plasmodium falciparum (NF54 strain). Put plainly: pLDH assay, late-stage gametocyte viability. The format is cell-based. Conditions: 72 + 72 h pLDH assay; for IC50: Plasmodium falciparum, NF54, 72 h. The method, then:
as §2

Series [4] can be described thus: LDH leakage cytotoxicity assay. The class given is cell-based. Conditions: human, HepG2 cells; HepG2, LDH leakage, positive control, n = 3. The method, then:
as §1

For series [5], the system named is mature, stage-V gametocytes (> 90% stage V). Also noted: method as in PMID 26749441. As to conditions: > 90% stage V gametocytes; cited from earlier work.
Setting [6] is: 1–2% gametocytaemia, n = 3, read-out: IC50 value, Late stage gametocytes.
Setting [7] is: unpaired assays, n = 1, technical triplicate, 10-fold serial dilution, read-out: IC50, late-stage gametocytes (drug controls).

Values after ≈ are worked out from the molar mass of the structure shown. Values joined by “and” are separate entries in the source; they are usually repeats but may differ in a detail not shown here. Equal values may be shown once. Read-outs that look alike come from different tables or passages of the source. Bounds are passed on as bounds.

By IC50 is commonly meant the point on the concentration scale where inhibition reaches its midpoint. As to `C=C1C(=O)O[C@H]2C1[C@@H](OC(C)=O)CC(=C)[C@]1(O)C=C[C@@](C)(O)[C@H]21` (stereo partly drawn) [Compound 1, 1α,4α-dihydroxybishopsolicepolide], in the series on HepG2 cells, the “cytotoxicity (toxicity)” value is < 10% and the “In vitro cytotoxicity range” value is 0.03–9.47%. In addition, in series [1], the “IC50 value, Asexual stages” value was determined as 6.0 µg/mL (≈ 18.7 µM); the concentration for half-maximal inhibition (IC50) is < 10 µg/mL and 18.7 µM. In series [2], the “IC50 value, Early stage gametocytes” value was 5.6 ± 0.2 µg/mL (≈ 17.5 µM) and the IC50 is 17.5 µM. Also, in series [3] (1–2% gametocytaemia, n = 3), the “IC50 value, Late stage gametocytes” value turned out to be 2 µg/mL. Further, the “IC50 value, Late stage gametocytes” value in series [3] (1–2% gametocytaemia, n = 3, listed as 1α,4α-dihydroxybishopsolicepolide) is < 10 µg/mL. In addition, in series [3] (setting [6]), the IC50 stood at 6.3 µM.

For `C=C1C(=O)O[C@H]2[C@H]1[C@@H](OC(C)=O)C[C@@](C)(O)[C@@]13O[C@@H]1[C@@H]1O[C@]1(C)[C@H]23` [Compound 2, yomogiartemin], the “cytotoxicity (toxicity)” value with HepG2 cells is < 10%. Besides, the “In vitro cytotoxicity range” value in the series on HepG2 cells was 0.40–8.35%. Moreover, the results for the “IC50 value, Asexual stages” value in series [1] and in series [1] (listed as yomogiartemin) were 3.8 ± 1.2 µg/mL (≈ 11.3 µM) and < 10 µg/mL, respectively. In addition, the IC50 in series [1] was 11.3 µM; in series [2], 13.1 µM; in series [3] (setting [6]), < 10 µg/mL and 15.8 µM. Further, the “IC50 value, Early stage gametocytes” value in series [2] was 4.4 ± 0.3 µg/mL (≈ 13.1 µM); in series [2] (listed as yomogiartemin), < 10 µg/mL. Further, in series [3] (1–2% gametocytaemia, n = 3), the “IC50 value, Late stage gametocytes” value stood at 5.3 µg/mL.

As usually defined, the EC50 is the concentration needed to bring the measured effect to its halfway point. `CC[C@H]1CN2CCc3cc(OC)c(OC)cc3[C@@H]2C[C@@H]1C[C@H]1NCCc2cc(OC)c(OC)cc21` [Emetine, reference compound] yielded an EC50 in series [4] of 4.7 µg/mL (≈ 9.78 µM). Moreover, the cytotoxicity with HepG2 cells (HepG2, 100 µM, positive control) is > 50%.

In the case of `CN(C)c1ccc2nc3ccc(=[N+](C)C)cc-3sc2c1` [Methylene blue, methylene blue, reference compound], the IC50 in series [3] (setting [7]) amounted to 0.031 µM.

`C[C@@H]1CC[C@H]2[C@@H](C)C(=O)O[C@@H]3O[C@@]4(C)CC[C@@H]1[C@]32OO4` [artemisinin, reference compound]: the concentration for half-maximal inhibition (IC50) in series [5] was > 12.5 µM; in series [3] (setting [7]), 0.057 µM.
